Laboratory results as given in US20090326008A1, “NF-kappa B Inhibitor” (priority 2006, published 2009).

What was measured:
Assay type in all cases: cell-based, human
IL-8 = experiment: Relative IL-8 mRNA expression in IL-1β-stimulated MKN-45 cells (real-time PCR); settings: IL-1β-stimulated DMSO-treated cells = 100%, ACTB reference
Description: (§1) RNA was extracted from the cells used in Example 2 according to the manufacturer's protocol for ABI Prism 6100 Nucleic Acid PrepStation (a nucleic acid isolation system, product of Applied Biosystems). More specifically, after removal of the culture supernatant and washing with 1 mL of PBS, 250 μL of Nucleic Acid Purification Lysis Solution (Part No. 4305895, Applied Biosystems) was added, and then agitated using a shaker for 2 to 3 minutes. The Lysis Solution containing the cell lysate was collected, and the total amount was transferred to the wells of RNA Purification Tray (Part No. 4305673, Applied Biosystems), which had been pre-wet with 40 μL of Nucleic Acid Purification Wash Solution I (Part No. 4305891, Applied Biosystems) beforehand. Aspiration (20% pressure) was performed for 2 minutes to adsorb the sample onto the RNA Purification Tray, followed by sequentially adding and aspirating (20% pressure, 2 min.) 500 μL of Wash Solution I, Nucleic Acid Purification (Part No. 4305891, Applied Biosystems), 400 μL of Wash Solution II, Nucleic Acid Purification (Part No. 4305890, product of Applied Biosystems), 400 μL of the Wash Solution II, and 300 μL of the Wash Solution II in that order. Aspiration (90% pressure) was performed for 5 minutes to remove the water content from the RNA Purification Trays. After addition of 150 μL of Elution Solution, Nucleic Acid Purification (Part No. 4305893, product of Applied Biosystems), aspiration (20% pressure) was performed for 2 minutes, while collecting the outflow. This was used as collected RNA solution.
(§2) Absorbance of the collected RNA solution at 260 nm was measured using a microplate spectrophotometer (“SpectraMax Plus”, product of Molecular Devices) with an analysis software (“SOFTmaxPRO ver.3.1.2”, product of Molecular Devices), and the RNA concentration was determined from the absorbance. Likewise, absorbance at 280 nm was measured and the purity of the RNA was determined using the analysis software.
(§3) cDNA was synthesized according to the manufacturer's protocol for TaqMan® Reverse Transcription Reagents (Part No. N808-0234, product of Applied Biosystems). More specifically, about 0.5 μg of RNA, 2.5 μL of 10×RT buffer, 5.5 μL of MgCl2 solution, 5 μL of dNTP mixture, 1.25 μL of random hexamer (primers), 0.5 μL of RNase inhibitor, and 0.63 μL of MultiScribe Reverse Transcriptase (product of Applied Biosystems) were added to each collected RNA sample in a tube, and DEPC-treated water was added to make a total volume of 25 μL and stirred. A reaction consisting of 25° C. for 10 minutes, 48° C. for 30 minutes, and 95° C. for 5 minutes was performed using a PCR thermal cycler (“TaKaRa PCR Thermal Cycler Dice”, product of Takara Bio Inc.) to prepare a cDNA solution.
(§4) PCR was performed according to the manufacturer's protocol for TaqMan® Gene Expression Assays (product of Applied Biosystems). More specifically, 5 μL of TaqMan® Fast Universal PCR Master Mix (product of Applied Biosystems), 0.5 μL of TaqMan® Gene Expression Assays for the target gene (gene-specific probe and primer sets, product of Applied Biosystems), and 4.5 μL of the above-obtained cDNA solution were added to each sample and stirred. A PCR reaction consisting of heating at 95° C. for 20 seconds, followed by 40 cycles consisting of heating at 95° C. for 3 seconds and annealing and extension at 60° C. for 30 seconds was performed using a real-time PCR device (“Applied Biosystems 7500 Real-Time PCR System”) with SDS v1.4 Software (product of Applied Biosystems). Threshold cycle (Ct) values were calculated using the software.
(§5) The Assay IDs of the TaqMan® Gene Expression Assays for the target genes used are as follows:
(§6) The expression level of each gene was determined according to the following formula using the level of ACTB as a reference standard.
(§7) (Relative mRNA expression level)=2̂−{(Ct value of the target gene)−(Ct value of ACTB)} […]

NF-κB = experiment: NF-kappaB reporter assay (pNF-kappaB-SEAP) in IL-1β-stimulated MKN-45 cells; settings: IL-1β 2 ng/mL for 6 hours, DMSO (0.05%) control = 1.00, triplicate
Description: pNF-kappaB-SEAP was obtained from Clonetech Laboratories Inc.
Cryopreserved MKN-45 cells (product of JCRB (Japanese Collection of Research Bioresources)) were thawed and cultured in a standard medium in an incubator (37° C., 5% CO2). Every three to five days, the cells were recovered by treatment with Trypsin-EDTA, then adequately diluted and subcultured. MKN-45 cells subcultured two or more times with a survival rate of 95% or more were used in each experiment.
The subcultured MKN-45 cells were harvested using Trypsin-EDTA solution, and the number of viable cells was counted. The cells were suspended in a standard medium to yield a 1.5×10^5 cells/mL suspension. A 24-well plate was seeded with 500 μL/well of the cell suspension, and the cells were cultured in an incubator (37° C., 5% CO2).
The day after seeding, transfection was performed according to the following protocol.
(4.1) Preparation of Plasmid Solution 4 μL of 0.1 μg/μL pNFkappaB-SEAP was placed into each well and diluted with 50 μL of OPTI-MEM I (product of Invitrogen Japan K.K.) by mixing by inversion.
1 μL of Lipofectamine 2000 reagent (product of Invitrogen) was placed into each well and diluted with 50 μL of OPTI-MEM I (product of Life Technologies Inc.) by mixing by inversion. The mixture was allowed to stand at room temperature for 5 to 10 minutes to prepare a Lipofectamine dilution.
The plasmid solution and the Lipofectamine dilution were mixed by inversion and allowed to stand at room temperature for 20 to 30 minutes to prepare a transfection mixture.
The culture medium was removed from the 24-well plate by suction. While care was taken not to dry the subcultured MKN-45 cells, the inner surface of the wells was washed with 1 mL/well of PBS. After the medium was replaced with 500 μL/well of OPTI-MEM I (product of Life Technologies Inc.), 100 μL/well of the transfection mixture was added, and the cells were cultured in a incubator (37° C., 5% CO2). After about 5 hours of incubation, the medium was replaced with a standard medium, and the cells were further cultured in a CO2 incubator (37° C., 5% CO2) until the following day.
On the following morning, the culture medium supernatant was removed by suction and replaced with 1 mL/well of the test compound solution or control solution diluted with a standard medium. The cells were cultured in a CO2 incubator (37° C., 5% CO2) for 1 hour. Each experiment was performed in triplicate.
200 ng/mL IL-1β was added in an amount of 10 μL/well (final concentration: 2 ng/mL), and the cells were cultured in a CO2 incubator (37° C., 5% CO2) for 6 hours.
A reporter assay was performed using Reporter Assay Kit-SEAP (product of Toyobo Co.) according to the manufacturer's protocol.
More specifically, 500 μL of the culture broth was transferred into a tube and centrifuged at 15,000 rpm for 5 minutes at 4° C. The supernatant was transferred into a 96-well white plate. The positive control included in the Reporter Assay Kit-SEAP, and a standard medium as a blank control were each added in an amount of 20 μL/well to the 96-well white plate. Further, an inhibitor for inhibiting the AP activity of the MKN-45 cells was added in an amount of 20 μL/well. After sealing the plate, the contents were mixed well. The plate was placed into a CO2 incubator (37° C., 5% CO2) and allowed to stand for 30 minutes. Subsequently, the plate was allowed to stand on ice for 1 minute, followed by addition of 160 μL/well of Lumi-Phos Plus (a chemiluminescent substrate, product of Lumigen Inc.). The plate was sealed again and placed in a light-shielded state into a CO2 incubator (37° C., 5% CO2). After the plate was allowed to stand for 15 to 30 minutes, luminescence was measured for about 5 to about 10 seconds using a luminometer.
The results of the reporter assay were expressed as Percent Control (or Inhibition), calculated according to the following formulae. The luminescence of each sample was calculated by subtracting the average of blank samples.

TNFα = experiment: Relative TNFα mRNA expression in IL-1β-stimulated MKN-45 cells (real-time PCR); settings: IL-1β-stimulated DMSO-treated cells = 100%, ACTB reference
Description: as §1, §2, §3, §4, §5, §6, §7

COX2 = experiment: Relative COX2 mRNA expression in IL-1β-stimulated MKN-45 cells (real-time PCR); settings: IL-1β-stimulated DMSO-treated cells = 100%, ACTB reference
Description: as §1, §2, §3, §4, §5, §6, §7

Compound	IL-8 relative mRNA expression level, Mean (IL-8) [%]	NF-kappaB reporter (SEAP luminescence) IL-1b(+) mean, relative to control (NF-κB)	TNFa relative mRNA expression level, Mean (TNFα) [%]	COX2 relative mRNA expression level, Mean (COX2) [%]
COC(=O)c1ccc(CN2C(=O)CCc3c(CC4SC(=O)NC4=O)ccc(OC)c32)cc1 (stereo not drawn) [Test Compound 025]	59.9	0.58	53.0	38.3
COc1ccc(CC2SC(=O)NC2=O)c2c1N(Cc1ccc(Br)cc1)C(=O)CC2 (stereo not drawn) [Test Compound 123]	48.3	0.46	28.5	28.6
COc1ccc(CC2SC(=O)NC2=O)c2c1N(Cc1ccc(C#N)cc1)C(=O)CC2 (stereo not drawn) [Test Compound 125]	45.4	0.55	52.5	29.2
COc1ccc(CC2SC(=O)NC2=O)c2c1N(Cc1ccc(OCc3ccccc3)cc1)C(=O)CC2 (stereo not drawn) [Test Compound 127]	44.8	0.60	49.8	31.0
COc1ccc(CC2SC(=O)NC2=O)c2c1N(Cc1ccc(NS(C)(=O)=O)cc1)C(=O)CC2 (stereo not drawn) [Test Compound 131]	77.9	0.49	71.3	80.9
O=C1NC(=O)C(Cc2cccc3c2CCC(=O)N3Cc2ccc(Br)cc2)S1 (stereo not drawn) [Test Compound 134]	55.4	0.46	36.6	33.1
O=C1NC(=O)C(Cc2cccc3c2CCC(=O)N3c2ccccc2)S1 (stereo not drawn) [Test Compound 150]	52.0	0.71	53.9	53.7
CC(C)(C)OC(=O)N1CCC(CCN2C(=O)CCc3c(CC4SC(=O)NC4=O)cccc32)CC1 (stereo not drawn) [Test Compound 159]	34.0	0.64	33.5	27.7
COc1ccc(CC2SC(=O)NC2=O)c2c1N(CC1CCN(c3ccc(C)cc3)CC1)C(=O)CC2 (stereo not drawn) [Test Compound 164]	24.8	0.78	30.0	21.7
O=C1NC(=O)C(Cc2ccc3c(c2)CCC(=O)N3Cc2ccc(-c3ccccc3)cc2)S1 (stereo not drawn) [Test Compound 186]	67.7	0.67	70.8	29.7
COc1ccc(CC2SC(=O)NC2=O)c2c1N(Cc1ccc(NC(=O)C3CCCCC3)cc1)C(=O)CC2 (stereo not drawn) [Test Compound 225]	50.0	0.49	44.6	32.9
CCCCCOC(=O)Nc1ccc(CN2C(=O)CCc3c(CC4SC(=O)NC4=O)ccc(OC)c32)cc1 (stereo not drawn) [Test Compound 232]	33.8	0.71	28.9	29.9
COc1ccc(CC2SC(=O)NC2=O)c2c1N(Cc1ccc(NC(=O)Oc3ccc(C)cc3)cc1)C(=O)CC2 (stereo not drawn) [Test Compound 233]	30.4	0.85	28.9	24.9
COc1ccc(CC2SC(=O)NC2=O)c2c1N(Cc1ccc(NC(=O)OCc3ccccc3)cc1)C(=O)CC2 (stereo not drawn) [Test Compound 234]	28.3	0.67	32.4	24.0
COc1ccc(OC(=O)Nc2ccc(CN3C(=O)CCc4c(CC5SC(=O)NC5=O)ccc(OC)c43)cc2)cc1 (stereo not drawn) [Test Compound 237]	25.9	0.57	26.2	25.9
